Source: patent US20220289753A1, “SHP2 INHIBITORS” (IRBM S.P.A., priority 2019, published 2022)

Key:
[1] = molecular target: T1, SHP-2 enzyme (Met1-Leu525) (Homo sapiens, UniProt Q06124); assay: SHP2 inhibition enzymatic assay (DiFMUP substrate, IRS1 peptide activation); assay type: biochemical; conditions: SHP2 wt; activated by 500 nM IRS1 peptide; 75 μM DiFMUP substrate
T1 construct: synthetized by Origene, Met1-Leu525, cat #TP750155; purchased Origene TP750155
T1 sequence (Q06124 1-525): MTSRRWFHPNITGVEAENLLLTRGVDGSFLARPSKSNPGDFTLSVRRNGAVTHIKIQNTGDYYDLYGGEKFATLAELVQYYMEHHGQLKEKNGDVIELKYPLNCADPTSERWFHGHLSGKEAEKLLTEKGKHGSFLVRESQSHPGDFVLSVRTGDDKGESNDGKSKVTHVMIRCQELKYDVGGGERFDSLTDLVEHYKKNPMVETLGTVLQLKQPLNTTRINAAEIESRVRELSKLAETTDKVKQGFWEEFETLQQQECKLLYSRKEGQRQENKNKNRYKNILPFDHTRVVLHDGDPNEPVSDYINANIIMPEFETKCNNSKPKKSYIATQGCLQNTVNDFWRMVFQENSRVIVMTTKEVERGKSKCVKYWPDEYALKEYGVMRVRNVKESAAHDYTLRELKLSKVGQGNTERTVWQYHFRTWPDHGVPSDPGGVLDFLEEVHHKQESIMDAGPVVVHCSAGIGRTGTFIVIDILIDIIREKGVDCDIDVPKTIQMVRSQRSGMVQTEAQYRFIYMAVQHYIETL
How it was run: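 SHP-2 (Met1-Leu525, 0.5 nM final) preincubated 30 min with compounds and IRS1 activating peptide in HEPES pH 7.2 buffer with NaCl, KCl, EDTA, tween-20, 5 mM DTT. DiFMUP then added for 30 min at room temperature and fluorescence read. IC50 from four-parameter logistic fit of % inhibition.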

[2] = test system: ERK phosphorylation in KYSE-520 cells; assay: Phospho-ERK cellular assay (Advanced phospho-ERK1/2 (Thr202/Tyr204) TR-FRET kit); assay type: cell-based; conditions: Homo sapiens, KYSE-520, 2 h, KYSE-520 cells, 2 h at 37° C., TR-FRET; read-out: pERK IC50
How it was run: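 IC50 values are inflection points of four-parameter logistic fits of percent activity against compound dilution. Compound exposure lasted 2 h at 37° C in KYSE-520 cells. Lysates were probed overnight with Eu-cryptate/d2 antibodies to ERK1/2 phosphorylated at Thr202/Tyr204, so reduced TR-FRET indicates SHP2 inhibition.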

| Compound | IC50 [1] [nM] | IC50 [2] [nM] |
| --- | --- | --- |
| N[C@@H]1c2ccccc2CC12CCN(c1nc3nc(Sc4ccc[nH]c4=O)cnc3[nH]1)CC2 [Example 238, (S)-3-((2-(1-amino-1,3-dihydrospiro[indene-2,4′-piperidin]-1′-yl)-1H-imidazo[4,5-b]pyrazin-5-yl)thio)pyridin-2(1H)-one] | < 500 | > 5000 |
| N[C@@H]1c2cccnc2CC12CCN(c1nc3ncc(Sc4ccc5c(c4Cl)NC(=O)CO5)nc3[nH]1)CC2 [Example 169, (S)-6-((2-(5-amino-5,7-dihydrospiro[cyclopenta[b]pyridine-6,4′-piperidin]-1′-yl)-1H-imidazo[4,5-b]pyrazin-6-yl)thio)-5-chloro-2H-benzo[b][1,4]oxazin-3(4H)-one] | < 500 | < 1000 |
| Nc1nccc(Sc2cnc3nc(N4CCC5(CC4)Cc4cccc(F)c4[C@H]5N)[nH]c3n2)c1Cl [Example 203, (S)-1′-(6-((2-amino-3-chloropyridin-4-yl)thio)-1H-imidazo[4,5-b]pyrazin-2-yl)-7-fluoro-1,3-dihydrospiro[indene-2,4′-piperidin]-1-amine] | < 500 | < 1000 |
| N[C@@H]1c2ccccc2CC12CCN(c1nc3nc(Sc4ccncc4OC(F)(F)F)cnc3[nH]1)CC2 [Example 226, (S)-1′-(5-((3-(trifluoromethoxy)pyridin-4-yl)thio)-1H-imidazo[4,5-b]pyrazin-2-yl)-1,3-dihydrospiro[indene-2,4′-piperidin]-1-amine] | < 500 | < 1000 |
| COc1cc2c(cc1F)[C@@H](N)C1(CCN(c3nc4ncc(Sc5ccncc5Cl)nc4[nH]3)CC1)C2 [Example 186, (S)-1′-(6-((3-chloropyridin-4-yl)thio)-1H-imidazo[4,5-b]pyrazin-2-yl)-6-fluoro-5-methoxy-1,3-dihydrospiro[indene-2,4′-piperidin]-1-amine] | < 500 | < 1000 |
| N[C@@H]1c2ccccc2CC12CCN(c1nc3nc(Sc4cccc5[nH]c(=O)cnc45)cnc3[nH]1)CC2 [Example 216, (S)-5-((2-(1-amino-1,3-dihydrospiro[indene-2,4′-piperidin]-1′-yl)-1H-imidazo[4,5-b]pyrazin-5-yl)thio)quinoxalin-2(1H)-one] | < 500 | < 1000 |
| COc1ncccc1Sc1cnc2[nH]c(N3CCC4(CC3)Cc3ccc(Br)cc3[C@H]4N)nc2n1 [Example 231, (S)-6-bromo-1′-(5-((2-methoxypyridin-3-yl)thio)-1H-imidazo[4,5-b]pyrazin-2-yl)-1,3-dihydrospiro[indene-2,4′-piperidin]-1-amine] | < 500 | < 1000 |
| CC1(N)CCN(c2nc3nc(Sc4cccc(Cl)c4Cl)ncc3[nH]2)CC1 [Example 144, 1-(2-((2,3-dichlorophenyl)thio)-7H-purin-8-yl)-4-methylpiperidin-4-amine] | 500 to 3000 | > 5000 |
| N[C@@H]1c2ccccc2OC12CCN(c1nc3nc(Sc4ccncc4Cl)cnc3[nH]1)CC2 [Example 155, (R)-1′-(5-((3-chloropyridin-4-yl)thio)-1H-imidazo[4,5-b]pyrazin-2-yl)-3H-spiro[benzofuran-2,4′-piperidin]-3-amine] | < 500 | 1000 to 5000 |

Further lines, results first:

| IC50 [1] [nM] | IC50 [2] [nM] | Compound |
| --- | --- | --- |
| < 500 | < 1000 | CCOc1cnccc1Sc1cnc2[nH]c(N3CCC4(CC3)Cc3ccccc3[C@H]4N)nc2n1 [Example 200, (S)-1′-(5-((3-ethoxypyridin-4-yl)thio)-1H-imidazo[4,5-b]pyrazin-2-yl)-1,3-dihydrospiro[indene-2,4′-piperidin]-1-amine] |
| 500 to 3000 | 1000 to 5000 | N[C@@H]1c2ccccc2CC12CCN(c1nc3nc(Sc4cc(O)ncc4Cl)cnc3[nH]1)CC2 [Example 241, (S)-4-((2-(1-amino-1,3-dihydrospiro[indene-2,4′-piperidin]-1′-yl)-1H-imidazo[4,5-b]pyrazin-5-yl)thio)-5-chloropyridin-2-ol] |
| < 500 | < 1000 | N[C@@H]1c2ccccc2CC12CCN(c1nc3nc(Sc4ccnc(N5CC(O)C5)c4Cl)cnc3[nH]1)CC2 [Example 165, (S)-1-(4-((2-(1-amino-1,3-dihydrospiro[indene-2,4′-piperidin]-1′-yl)-1H-imidazo[4,5-b]pyrazin-5-yl)thio)-3-chloropyridin-2-yl)azetidin-3-ol] |
| < 500 | < 1000 | N[C@@H]1c2ccccc2CC12CCN(c1nc3nc(Sc4ccnnc4Cl)cnc3[nH]1)CC2 [Example 247, (S)-1′-(5-((3-chloropyridazin-4-yl)thio)-1H-imidazo[4,5-b]pyrazin-2-yl)-1,3-dihydrospiro[indene-2,4′-piperidin]-1-amine] |
| 500 to 3000 | 1000 to 5000 | N[C@@H]1c2ccccc2CC12CCN(c1nc3nc(Sc4cnc5ccccn5c4=O)cnc3[nH]1)CC2 [Example 221, (S)-3-((2-(1-amino-1,3-dihydrospiro[indene-2,4′-piperidin]-1′-yl)-1H-imidazo[4,5-b]pyrazin-5-yl)thio)-4H-pyrido[1,2-a]pyrimidin-4-one] |
